Results: US10532991B2 (TAIPEI MEDICAL UNIVERSITY, priority 2018, dated 2020)

Columns and labels:
[1] = Human liver microsome stability; format: in vitro ADME; settings: human liver microsomes, 1 μM test compound, 37° C.; CLint = k/P
[2] = in vivo; cited from earlier work

Structure (SMILES)	CLint (intrinsic clearance) [1] [mL/min/mg Protein]	area under the curve (AUC) [2] [ng·h/mg]	t1/2 [2] [h]
C[C@]12CC[C@H]3[C@@H](CCC4=CC(=O)CC[C@@]43C)[C@@H]1CC[C@@H]2O [Testosterone, testosterone, reference compound]	0.0727	–	–
COc1cc2c(cc1OC)C1CC(=O)C(CC(C)C)CN1CC2 (centres unmarked) [tetrabenazine]	–	261	4.8
[2H]C([2H])([2H])Oc1cc2c(cc1OC([2H])([2H])[2H])C1CC(=O)C(CC(C)C)CN1CC2 (centres unmarked) [deutetrabenazine]	–	542	8.6
